This is an account of results in ChEMBL document CHEMBL1671733, “Clinical evaluation of a dried blood spot assay for atazanavir” (Antimicrob Agents Chemother, 2010).

Holding throughout (format): ADME, organism-based
Data set [1] in a line: Plasma concentration in HIV infected patient at 300 mg qd measured after 16.60 hrs by plasma based assay using HPLC. The following applies: human.
Data set [2] can be described thus: Cmax in HIV infected patient at 300 mg qd measured after 16.60 hrs by plasma based assay using HPLC. Also noted: dose 300 mg. The conditions noted are these: human.
Data set [3] is described as follows: Cmax in HIV infected patient at 400 mg qd measured after 13.06 hrs by plasma based assay using HPLC. Also noted: dose 400 mg. The conditions noted are these: human.
A short description of data set [4]: Cmin in HIV infected patient at 400 mg qd measured after 13.06 hrs by plasma based assay using HPLC. The following applies: human, read-out: Cmin.
Data set [5] can be described thus: Cmin in HIV infected patient at 300 mg qd measured after 16.60 hrs by plasma based assay using HPLC. The conditions noted are these: human, read-out: Cmin.
Data set [6] is filed under the species Homo sapiens. In words: Plasma concentration in HIV infected patient with HIV RNA of >50 copies/ml by dried blood spot assay using reversed-phase ultrahigh-performance liquid chromatography. The conditions noted are these: in vivo.
Data set [7] in a line: Plasma concentration in HIV infected patient at 400 mg qd measured after 13.06 hrs by plasma based assay using HPLC. The conditions noted are these: human.
Data set [8] is filed under the species Homo sapiens. The data set is described as follows: Plasma concentration in HIV infected patient with HIV RNA of <50 copies/ml by dried blood spot assay using reversed-phase ultrahigh-performance liquid chromatography. The following applies: in vivo.

A word on the Cmax: it is the highest concentration seen after dosing. In the case of `COC(=O)N[C@H](C(=O)N[C@@H](Cc1ccccc1)[C@@H](O)CN(Cc1ccc(-c2ccccn2)cc1)NC(=O)[C@@H](NC(=O)OC)C(C)(C)C)C(C)(C)C` [ATAZANAVIR], the concentration at 16.6 h in data set [1] was 1630 ng/mL; in data set [5], 196 ng/mL. The Cmax was determined as 7220 ng/mL in data set [2] and 787 ng/mL in data set [3]. In addition, the figures for the concentration at 13.06 h in data set [4] and in data set [7] were 342 ng/mL and 465 ng/mL, respectively. Moreover, the values for the Cp in data set [6] and in data set [8] were 543 ng/mL and 1582 ng/mL, respectively.
